Reference: PubChem BioAssay AID1552 (Sanford-Burnham Center for Chemical Genomics, 2009)
Activity calls are given as the source filed them. No rule for the calls is given here.

The compounds below were run against Ubiquitin-conjugating enzyme E2 N (Homo sapiens) (UniProt P61088) (assay: NMR detection of UBE2N ligand binding – biophysical, purified protein (AID 1552)). Settings: NMR binding to purified UBE2N.
Ubiquitin-conjugating enzyme E2 N (Homo sapiens), sequence (P61088 whole entry, looked up): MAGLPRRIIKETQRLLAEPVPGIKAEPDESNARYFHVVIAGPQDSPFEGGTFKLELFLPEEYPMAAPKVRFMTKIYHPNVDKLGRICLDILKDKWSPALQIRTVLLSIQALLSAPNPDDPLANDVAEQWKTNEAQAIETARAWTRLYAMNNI

| Compound | Kd |
| --- | --- |
| CN1C2CC3C[C@H]1C(O3)C2O (some centres undefined) | > 4 mM (inactive) |
| Cc1cc(C(=O)Nc2ccccn2)no1 | > 4 mM (inactive) |
| Cc1cccc(NC(=O)CN2C(=O)CNC2=O)c1 | > 4 mM (inactive) |
| CCn1ccc(C(=O)Nc2nccs2)n1 | > 4 mM (inactive) |
| Cn1ccnc1C(O)c1ccccc1 (centres undefined) | > 4 mM (inactive) |
| CC12CC[C@H](CC1=O)C2(C)C | > 4 mM (inactive) |
| Fc1ccc(N2CCNCC2)cc1 | > 4 mM (inactive) |
| Cc1nn(-c2ccccc2)nc1C(N)=O | > 4 mM (inactive) |
| COc1c2ccoc2c(OC)c2oc(=O)ccc12 | > 4 mM (inactive) |
| COc1ccc(Cl)cc1-c1nc(-c2ccncc2)no1 | > 4 mM (inactive) |
| Cc1cc(C(=O)Nc2nnc(C(F)(F)F)s2)no1 | > 4 mM (inactive) |
| Cc1cc(C)nc(Nc2n[nH]c(Cc3ccccc3)n2)n1 | > 4 mM (inactive) |
| Cc1ccc(S(=O)(=O)CCc2ccccn2)cc1 | > 4 mM (inactive) |
| Cc1csc(NC(=O)c2cccs2)n1 | > 4 mM (inactive) |
| CC(=O)OCC(=O)[C@@]1(O)CCC2C3CC[C@@H]4C[C@H](OC(C)=O)CC[C@]4(C)C3C(=O)C[C@@]21C (some centres undefined) | > 4 mM (inactive) |
| CN1C(=O)C2CC=C(Cl)CC2C1=O (centres undefined) | > 4 mM (inactive) |
| CS(=O)(=O)c1ccc2nc(N)sc2c1 | > 4 mM (inactive) |
| Nc1oncc1-c1ccccn1 | > 4 mM (inactive) |
| Cc1cc(=O)n2ncn(Cc3ccccc3)c2n1 | > 4 mM (inactive) |
| O=C(O)c1ccc2sccc2c1 | > 4 mM (inactive) |
| CC1(C)N=C2C(=[N+]1[O-])CCC/C2=N\O | > 4 mM (inactive) |
| O=C1CSC(=O)N1c1cccc(O)c1 | > 4 mM (inactive) |
| CN1CCN(C(=O)c2ccccc2C(=O)O)CC1 | > 4 mM (inactive) |

| Compound | Kd |
| --- | --- |
| COC(=O)c1cccc2cc[nH]c12 | > 4 mM (inactive) |
| CC1=CCCC2C1(C)CCC(C)C2(C)CC/C(C)=C/C[n+]1cn(C)c2c(N)ncnc21 (centres undefined) | > 4 mM (inactive) |
| O=C1C=CC(=O)N1c1ccccc1O | > 4 mM (inactive) |
| OCc1ccc(OC(F)(F)F)cc1 | > 4 mM (inactive) |
| O=C1N/C(=N\c2ccccn2)SC1Cc1ccccc1 (centres undefined) | > 4 mM (inactive) |
| O=c1cnnc(SCCc2ccccc2)[nH]1 | > 4 mM (inactive) |
| NCc1ccccc1N1CCOCC1 | > 4 mM (inactive) |
| O=C(c1ccco1)N1C(=O)c2cccc3cccc1c23 | > 4 mM (inactive) |
| CCOc1ccc2nc(NS(C)(=O)=O)sc2c1 | > 4 mM (inactive) |
| O=C(O)c1c[nH]c2ccccc12 | > 4 mM (inactive) |
| COC(=O)c1cccc(N)c1 | > 4 mM (inactive) |
| O=S1(=O)CCC(NC(=S)Nc2ccc(O)cc2)C1 (centres undefined) | > 4 mM (inactive) |
| COc1cc([C@@H]2c3cc4c(cc3[C@H](OC(C)=O)[C@H]3COC(=O)[C@H]23)OCO4)cc(OC)c1OC | > 4 mM (inactive) |
| Cc1nnc(Nc2cccnc2)[nH]c1=O | > 4 mM (inactive) |
| O=C1NC(=S)NC(=O)C1=Cc1cccs1 | > 4 mM (inactive) |
| Cn1ncc(N2CCOCC2)c(Cl)c1=O | > 4 mM (inactive) |
| CCC(=O)Nc1ccc(-c2nn3c(C)nnc3s2)cc1 | > 4 mM (inactive) |
| Nc1cncc(C(=O)O)c1 | > 4 mM (inactive) |
| Cc1occc1C(=O)N1CCC2(CC1)OCCO2 | > 4 mM (inactive) |
| Cc1ccc(N2C(=O)CCC2=O)cc1 | > 4 mM (inactive) |
| CCOC(=O)c1ccc(F)cc1F | > 4 mM (inactive) |
| CCOC(=O)C1=C(C)N2CCN=C2S1 | > 4 mM (inactive) |
| Cc1cc(C)n(CCCC(=O)O)n1 | > 4 mM (inactive) |

| Compound | Kd |
| --- | --- |
| Cc1nn(-c2ccccc2)c(Cl)c1C(N)=O | > 4 mM (inactive) |
| COc1cc2c3cc1Oc1cc(ccc1O)C[C@@H]1c4c(cc(OC)c(O)c4Oc4ccc(cc4)C[C@@H]3N(C)CC2)CC[N+]1(C)C | > 4 mM (inactive) |
| O=C1CSC(=NC(=O)c2ccccc2)N1 | > 4 mM (inactive) |
| O=S1(=O)CCC(NC(=S)N2CCCCC2)C1 (centres undefined) | > 4 mM (inactive) |
| O=c1[nH]c2sc3c(c2c2ncnn12)CCCC3 | > 4 mM (inactive) |
| O=C(O)CS(=O)(=O)c1ccccc1 | > 4 mM (inactive) |
| CCOC(=O)CSCC(=O)Nc1nccs1 | > 4 mM (inactive) |
| O=c1cnnc(N2CCCCC2)[nH]1 | > 4 mM (inactive) |
| Nc1cccc2nsnc12 | > 4 mM (inactive) |
| CSc1ccc(S(=O)(=O)N2CCCC2)cc1 | > 4 mM (inactive) |
| COc1cc(O)c2c(c1)C(=O)c1cc(C)cc(O)c1C2=O | > 4 mM (inactive) |
| CN1C(=O)CC(=O)N(C)c2ccccc21 | > 4 mM (inactive) |
| COC(=O)C[C@@H]1C2(C)C(=O)[C@@H](CC3=C4CC(O)O[C@@H](c5ccoc5)[C@]4(C)CCC32)[C@H](O)C1(C)C (some centres undefined) | > 4 mM (inactive) |
| COC(=O)c1[nH]c2ccccc2c1C(=O)OC | > 4 mM (inactive) |
| O=C(CSc1ncccn1)NCc1ccco1 | > 4 mM (inactive) |
| COc1ccccc1-c1noc(-c2ccncc2)n1 | > 4 mM (inactive) |
| CC(C)[C@@H]1CC[C@@H](C)CC1=O | > 4 mM (inactive) |
| COc1cc2c3cc1Oc1c(OC)c(OC)cc4c1[C@@H](Cc1cccc(c1)Oc1ccc(c(O)c1)C[C@@H]3N(C)CC2)N(C)CC4 | > 4 mM (inactive) |
| Cc1oc(-c2ccccc2)cc1CO | > 4 mM (inactive) |
| CC(=O)c1cc(C(N)=O)c(=S)[nH]c1C | > 4 mM (inactive) |
| Oc1ccc2c(c1)OCC1(O)Cc3cc(O)c(O)cc3C21 (centres undefined) | > 4 mM (inactive) |
| CCOC(=O)c1c(C)cc(OC)cc1O | > 4 mM (inactive) |
| C/C=C/C(=O)Nc1ccc(NC(C)=O)cc1 | > 4 mM (inactive) |

| Compound | Kd |
| --- | --- |
| COc1ccc(-c2oc3ccccc3c(=O)c2O)cc1OC | > 4 mM (inactive) |
| O=C(O)c1ccc(N2CCOCC2)nc1 | > 4 mM (inactive) |
| CC(C)CCCC(C)[C@H]1CCC2C3CC=C4C[C@@H](O)CC[C@]4(C)C3CC[C@@]21C (some centres undefined) | > 4 mM (inactive) |
| O=C(O)c1ccc(CN2CCOCC2)cc1 | > 4 mM (inactive) |
| COc1ccc(-c2cc(=O)c3c(OC)c(OC)c(OC)c(OC)c3o2)cc1OC | > 4 mM (inactive) |
| CC(=O)c1nnc2cc(C)nn2c1C | > 4 mM (inactive) |
| COc1ccc(/C=C2/N=C(N)SC2=O)cc1 | > 4 mM (inactive) |
| CSc1ncnc2nc[nH]c12 | > 4 mM (inactive) |
| CC(=O)N1CCN(S(=O)(=O)c2ccccc2)CC1 | > 4 mM (inactive) |
| Nc1ccc(N2CCOCC2)cc1 | > 4 mM (inactive) |
| O=C(NCc1cccs1)c1ccncc1 | > 4 mM (inactive) |
| COC(=O)C1CSCC1=O (centres undefined) | > 4 mM (inactive) |
| COc1ccc(Cl)cc1NC(=O)c1ccco1 | > 4 mM (inactive) |
| Cc1c(CO)cnn1-c1ccccc1 | > 4 mM (inactive) |
| Brc1ccc(-c2nc(-c3ccncc3)no2)o1 | > 4 mM (inactive) |
| COCC(=O)Nc1ccc(F)cc1F | > 4 mM (inactive) |
| NC(=O)Cc1nc(-c2ccccc2)cs1 | > 4 mM (inactive) |
| O=C(c1ccc(N2CCNCC2)cc1)c1cccnc1 | > 4 mM (inactive) |
| O=Cc1c(N2CCOCC2)nc2ccccn2c1=O | > 4 mM (inactive) |
| Cc1oc(S(=O)(=O)N2CCCCC2)cc1C(=O)O | > 4 mM (inactive) |
